From patent publication US20090048174A1, “Methods for inhibiting angiogenesis and tumor growth by inhibition of beta or delta protein kinase C” (priority 2006, published 2009)
Bridge positions count the residues as written; N and C are the ends. Ends that are not written are not given here.

Key:
[1] = target: T1, δPKC (Homo sapiens, UniProt Q05655); experiment: Immunoblot of particulate vs total δPKC in tumor cells from treated mice; type: in vivo; conditions: treated for 5 weeks, vs control (FIG. 18E)
T1 construct: endogenous in cells; host or cells: PC3 human prostate cancer xenograft grown in nude mice
T1 sequence (Q05655 whole entry): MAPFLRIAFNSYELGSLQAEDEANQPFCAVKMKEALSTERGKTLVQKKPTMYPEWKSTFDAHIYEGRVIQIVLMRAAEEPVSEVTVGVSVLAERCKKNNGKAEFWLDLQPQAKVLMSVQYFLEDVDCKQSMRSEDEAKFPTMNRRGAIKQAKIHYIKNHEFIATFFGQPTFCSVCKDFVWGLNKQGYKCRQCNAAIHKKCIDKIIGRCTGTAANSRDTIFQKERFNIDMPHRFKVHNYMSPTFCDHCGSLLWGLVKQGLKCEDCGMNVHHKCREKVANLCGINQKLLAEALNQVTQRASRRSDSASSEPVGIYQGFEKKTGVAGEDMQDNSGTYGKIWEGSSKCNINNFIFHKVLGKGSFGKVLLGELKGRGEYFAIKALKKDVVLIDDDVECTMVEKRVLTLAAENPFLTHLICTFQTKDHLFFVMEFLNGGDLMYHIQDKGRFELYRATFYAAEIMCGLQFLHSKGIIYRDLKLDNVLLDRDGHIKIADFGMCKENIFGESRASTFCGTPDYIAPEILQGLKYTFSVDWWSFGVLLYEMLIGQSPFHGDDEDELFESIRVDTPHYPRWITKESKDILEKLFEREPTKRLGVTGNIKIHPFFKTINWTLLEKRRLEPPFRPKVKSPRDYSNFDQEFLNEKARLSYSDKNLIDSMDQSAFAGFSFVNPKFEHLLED
Method: (§1) Male nude mice were subcutaneously injected with human prostate cancer cells (PC3) at six weeks of age. […]
(§2) Tumor volumes were measured periodically (e.g., weekly). […] Angiogenesis and tumor cell proliferation were measured at six weeks by deuterium analyses using gas chromatography-mass spectrometry (GC-MS). Ribose derivatives extracted from DNA that incorporated deuterium during cell division can be identified by GC-MS and can be quantitated over total ribose from all DNA. This measurement allows the calculation of “newly synthesized DNA” during the deuterated water administration (i.e., pulse), from which the fractional turnover rate can be calculated using an exponential equation. Levels of tumor cell markers, angiogenesis-related polypeptides, and apoptosis-related proteins were evaluated by Western blot and immunohistochemistry. […]

[2] = tested on: tumor cells (mixed cell populations); experiment: Apoptosis histology of tumor samples (TUNEL, Hoechst, cleaved caspase 3); type: in vivo, mice
Description: (§3) Tumor cells (mixed cell populations) obtained from control and βIIPKC peptide inhibitor βIIV5-3-treated animals following 5-weeks of treatment were subjected to histological analysis to determine the effect of the βIIPKC peptide inhibitor on apoptosis (data not shown). CD31 is a tumor endothelial marker used to identify […] in a sample. CD31 (PECAM-1) has been implicated in angiogenesis, apoptosis, cell migration, modulation of integrin-mediated cell adhesion, transendothelial migration, negative regulation of immune cell signaling, autoimmunity, macrophage phagocytosis, IgE-mediated anaphylaxis, and thrombosis. […]
(§4) Tumor volumes were measured periodically (e.g., weekly). […] Angiogenesis and tumor cell proliferation were measured at six weeks by deuterium analyses using gas chromatography-mass spectrometry (GC-MS). Ribose derivatives extracted from DNA that incorporated deuterium during cell division can be identified by GC-MS and can be quantitated over total ribose from all DNA. This measurement allows the calculation of “newly synthesized DNA” during the deuterated water administration (i.e., pulse), from which the fractional turnover rate can be calculated using an exponential equation. Levels of tumor cell markers, angiogenesis-related polypeptides, and apoptosis-related proteins were evaluated by Western blot and immunohistochemistry.

[3] = tested on: HIF-1a; experiment: Immunoblot of HIF-1a in tumor cell homogenate, normalized for GAPDH; type: in vivo, mice; conditions: tumor cells, 5 weeks of treatment; vs saline, p<0.05 (FIG. 24E)
Description: FIGS. 24A-24D show the results of immunoblot analysis total cell homogenate obtained from tumor cells from saline control (FIGS. 24 A and 24C) and δPKC activator (FIGS. 24 B and 24D) treated animals (5 weeks). The blots were probed with an antibody specific for hypoxia-inducible factors (HIF-1a, FIGS. 24A and 24B) or an antibody specific for GAPDH as a control (FIGS. 24C and 24D). FIG. 24E is a graph showing the relative levels of HIF-1a (normalized for GADPH) from FIGS. 24A-24D.
Tumor volumes were measured periodically (e.g., weekly). The mice were typically sacrificed after 5 weeks of treatment. […] Angiogenesis and tumor cell proliferation were measured at six weeks by deuterium analyses using gas chromatography-mass spectrometry (GC-MS). Ribose derivatives extracted from DNA that incorporated deuterium during cell division can be identified by GC-MS and can be quantitated over total ribose from all DNA. This measurement allows the calculation of “newly synthesized DNA” during the deuterated water administration (i.e., pulse), from which the fractional turnover rate can be calculated using an exponential equation. Levels of tumor cell markers, angiogenesis-related polypeptides, and apoptosis-related proteins were evaluated by Western blot and immunohistochemistry. […]

[4] = tested on: tumor endothelial cells (TEC); experiment: Tumor endothelial cell proliferation, deuterium GC-MS fractional turnover; type: in vivo, mice; conditions: three weeks of continuous treatment; vs saline
Method: Tumor volumes were measured periodically (e.g., weekly). […] Deuterated water was given to the animals about one week prior to sacrifice to facilitate the measurement of cell proliferation. Angiogenesis and tumor cell proliferation were measured at six weeks by deuterium analyses using gas chromatography-mass spectrometry (GC-MS). Ribose derivatives extracted from DNA that incorporated deuterium during cell division can be identified by GC-MS and can be quantitated over total ribose from all DNA. This measurement allows the calculation of “newly synthesized DNA” during the deuterated water administration (i.e., pulse), from which the fractional turnover rate can be calculated using an exponential equation. Levels of tumor cell markers, angiogenesis-related polypeptides, and apoptosis-related proteins were evaluated by Western blot and immunohistochemistry.

[5] = tested on: tumor cells (TC); experiment: Tumor cell proliferation, deuterium GC-MS fractional turnover; type: in vivo, mice
Method: (§5) Tumor volumes were measured periodically (e.g., weekly). The mice were typically sacrificed after 5 weeks of treatment. Deuterated water was given to the animals about one week prior to sacrifice to facilitate the measurement of cell proliferation. Angiogenesis and tumor cell proliferation were measured at six weeks by deuterium analyses using gas chromatography-mass spectrometry (GC-MS). Ribose derivatives extracted from DNA that incorporated deuterium during cell division can be identified by GC-MS and can be quantitated over total ribose from all DNA. This measurement allows the calculation of “newly synthesized DNA” during the deuterated water administration (i.e., pulse), from which the fractional turnover rate can be calculated using an exponential equation. Levels of tumor cell markers, angiogenesis-related polypeptides, and apoptosis-related proteins were evaluated by Western blot and immunohistochemistry.

[6] = tested on: vascular endothelial growth factor (VEGF); experiment: VEGF concentration in prostate cancer tumor cells (ELISA); type: in vivo, mice; conditions: three weeks of continuous treatment; vs saline
[7] = tested on: CD31; experiment: CD31 staining of tumor samples (tumor vessels); type: in vivo, mice; conditions: 5 weeks of treatment; vs control animals
Description: as §3, §4

[8] = target: T2, εPKC (Homo sapiens, UniProt Q02156); experiment: Immunoblot of particulate vs total εPKC in tumor cells from treated mice; type: in vivo; conditions: tumor cells from treated animals; vs control (FIG. 19E)
T2 construct: endogenous in cells; host or cells: PC3 human prostate cancer xenograft grown in nude mice
T2 sequence (Q02156 1-737): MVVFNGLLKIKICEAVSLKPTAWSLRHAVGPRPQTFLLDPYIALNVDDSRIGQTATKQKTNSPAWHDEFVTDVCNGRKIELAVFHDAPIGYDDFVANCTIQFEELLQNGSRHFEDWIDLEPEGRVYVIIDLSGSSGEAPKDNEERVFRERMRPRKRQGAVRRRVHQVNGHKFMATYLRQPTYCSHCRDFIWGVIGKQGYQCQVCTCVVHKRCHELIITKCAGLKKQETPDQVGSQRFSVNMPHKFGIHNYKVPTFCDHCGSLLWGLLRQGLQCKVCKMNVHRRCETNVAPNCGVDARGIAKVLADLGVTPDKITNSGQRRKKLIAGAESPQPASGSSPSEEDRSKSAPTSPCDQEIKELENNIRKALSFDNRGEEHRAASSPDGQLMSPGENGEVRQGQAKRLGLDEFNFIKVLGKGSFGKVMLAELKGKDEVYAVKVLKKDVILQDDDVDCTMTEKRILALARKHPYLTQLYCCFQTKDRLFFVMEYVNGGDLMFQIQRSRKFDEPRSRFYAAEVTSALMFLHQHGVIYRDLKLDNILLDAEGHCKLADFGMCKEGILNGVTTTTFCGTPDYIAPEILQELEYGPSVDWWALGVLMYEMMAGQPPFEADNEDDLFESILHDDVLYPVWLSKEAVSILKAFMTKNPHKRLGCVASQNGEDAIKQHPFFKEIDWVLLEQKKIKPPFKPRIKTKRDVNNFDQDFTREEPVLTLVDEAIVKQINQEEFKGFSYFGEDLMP
Method: as §1, §2

[9] = tested on: Ki67; experiment: Ki67 staining of tumor tissue; type: in vivo, mice; conditions: vs saline
Method: Tumor tissue obtained from animals treated with a control saline solution or the δPKC activator peptide were stained with an antibody specific for Ki67 to detect proliferating cells in all phases of the cell cycle (i.e., G1, S-, G2-, and M-phase), but not in resting cells (G0-phase).
as §5

[10] = tested on: human prostate cancer cells (PC3); experiment: PC3 prostate tumor xenograft growth in nude mice, osmotic pump delivery; type: in vivo
Description: Male nude mice were subcutaneously injected with human prostate cancer cells (PC3) at six weeks of age. After one week, the animals were implanted with an ALZEJ® (Alza Corporation, Mountain View, Calif.) osmotic pump for delivery of a control saline solution, a control peptide of TAT (residues 47-57, Y[…] ID NO:85), or an inhibitor or activator of PKC (e.g., δV1-1 attached to TAT (YGRKKRRQRRR-CC-SFNSYELGSL; SEQ ID NO: 143), δV1-7 attached to TAT (YGRKKRRQRRR-CC-MRAAEDPM; SEQ ID NO: 144), or βIIV5-3 attached to TAT (YGRKKRRQRRR-CC-QEVIRN; SEQ ID NO: 145). The rate of administration was 0.5 μl/hr, unless otherwise noted. Typical inhibitor or activator concentrations were 3-30 mM. In some cases, a lower concentration was administered initially (e.g., 3 mM) followed by a higher concentration (e.g., 30 mM) in the later weeks of treatment.
as §5

δV1-7: activator of δPKC, amino acid sequence MRAAEDPM (SEQ ID NO: 146), attached to TAT (YGRKKRRQRRR-CC-MRAAEDPM; SEQ ID NO: 144) (YGRKKRRQRRRCCMRAAEDPM; disulfide 12-13 (inferred))
levels of particulate δPKC compared to total δPKC [1]: approximately doubled
percentage of cells stained by TUNEL labeling ([2]; mixed tumor cell population, 5 weeks of treatment, vs saline (FIG. 26)): increased TUNEL labeling only slightly
tumor volume as a function of the percent of TUNEL-positive cells ([2]; vs saline control animals (FIG. 27A-27C)): larger tumor volumes for a given percent of TUNEL-positive cells
levels of HIF-1a normalized for GAPDH [3]: several-fold increase
rate of tumor endothelial cell (TEC) proliferation, fractional turnover per day [4]: similar
rate of tumor cell proliferation ([5]; 5 weeks of treatment (end-stage), vs saline (FIG. 22)): substantial increase
rate of tumor cell (TC) proliferation, fractional turnover per day ([5]; three weeks of continuous treatment, vs saline): appeared to decrease
concentration of VEGF in prostate cancer tumor cells [6]: not increased
CD31 staining (tumor vascularization) [7]: several-fold increase
levels of particulate εPKC compared to total εPKC [8]: do not substantially change
Ki67 staining (proliferating cells) [9]: increased Ki67 staining
tumor mass ([10]; 3 weeks of treatment, vs saline (FIG. 25C)): decreased
tumor volume ([10]; continuous treatment, vs saline and Tat control groups, p=0.004 (FIG. 20)): significantly increased tumor volume
tumor volume ([10]; three weeks of treatment, peptide conjugated to TAT, vs TAT control (FIG. 17)): increase in tumor volume
